This test has as its target T1, Cholecystokinin receptor type A (Rattus norvegicus, UniProt P30551).
T1 sequence (P30551 whole entry): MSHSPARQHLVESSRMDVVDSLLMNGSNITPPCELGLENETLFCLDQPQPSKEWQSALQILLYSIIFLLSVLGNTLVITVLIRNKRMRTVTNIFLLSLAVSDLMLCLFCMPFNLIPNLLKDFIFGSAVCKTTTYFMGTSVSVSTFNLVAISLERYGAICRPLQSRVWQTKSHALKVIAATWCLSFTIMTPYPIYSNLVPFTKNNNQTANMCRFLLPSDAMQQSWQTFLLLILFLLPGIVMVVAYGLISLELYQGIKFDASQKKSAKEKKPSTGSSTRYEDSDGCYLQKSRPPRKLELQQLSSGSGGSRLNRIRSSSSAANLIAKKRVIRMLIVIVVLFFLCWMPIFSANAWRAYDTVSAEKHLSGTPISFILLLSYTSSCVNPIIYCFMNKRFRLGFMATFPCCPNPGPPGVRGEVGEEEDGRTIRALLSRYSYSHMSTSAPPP
Kind of test: Binding affinity against cholecystokinin type A receptor of rat pancreas.

Turning to `O=C(NC1N=C(c2ccccc2)c2ccccc2NC1=O)c1cc2ccccc2[nH]1` (stereo not drawn), the IC50 was 4.57 nM.

Turning to `CN1C(=O)C(NC(=O)c2ccc(C(F)(F)F)cc2)N=C(c2ccccc2)c2ccccc21` (stereo not drawn), the IC50 is 1.29 nM.

Take `CN1C(=O)C(NC(=O)c2cccc(Br)c2)N=C(c2ccccc2F)c2ccccc21` (stereo not drawn): the IC50 was 3.47 nM.

Compound `O=C(NC1N=C(c2ccccc2F)c2ccccc2NC1=O)c1cc2cc(Cl)ccc2[nH]1` (stereo not drawn) showed a half-inhibitory concentration (IC50) of 100 nM.

The compound `CN1C(=O)C(NC(=O)c2ccccc2I)N=C(c2ccccc2F)c2ccccc21` (stereo not drawn) showed an IC50 of 794 nM.

The compound `CN1C(=O)C(NC(=O)c2ccc(I)cc2)N=C(c2ccccc2F)c2ccccc21` (stereo not drawn) gave an IC50 of 0.794 nM.

As for `O=C(NC1N=C(c2ccccc2)c2ccccc2NC1=O)c1ccc(O)cc1` (stereo not drawn), the IC50 is 1780 nM.

In the case of `CN1C(=O)C(NC(=O)c2ccc(Br)cc2)N=C(c2ccccc2F)c2ccccc21` (stereo not drawn), the IC50 was 0.794 nM.

`CN1C(=O)[C@@H](NC(=O)c2ccc(Br)cc2)N=C(c2ccccc2)c2ccccc21` gave a 50% inhibitory concentration (IC50) of 2.51 nM.

For the compound `CN1C(=O)C(NC(=O)c2ccc(C#N)cc2)N=C(c2ccccc2F)c2ccccc21` (stereo not drawn), the IC50 is 42.7 nM.

As to `CC1C(C(=O)NC2N=C(c3ccccc3F)c3ccccc3NC2=O)=Cc2ccccc21` (stereo not drawn), the IC50 is 21.9 nM.

In turn, `CN1C(=O)[C@@H](NC(=O)c2ccc(Cl)cc2)N=C(c2ccccc2F)c2ccccc21` gave an IC50 of 2.88 nM.

As for `O=C(CNc1ccccc1)NC1N=C(c2ccccc2F)c2ccccc2NC1=O` (stereo not drawn), the IC50 was 89.1 nM.

In general, IC50 refers to the concentration at which inhibition is half-maximal.

The values above are taken from ChEMBL document CHEMBL1127379, “Three-dimensional molecular shape analysis-quantitative structure-activity relationship of a series of cholecystokinin-A receptor antagonists” (J Med Chem, 1994).
